Assay results taken from ChEMBL document CHEMBL1201862, “PubChem BioAssay data set” (2004).
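48-hour exposure; five concentrations; linearly interpolated endpoints. At the GI50, growth is halved.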 The source made the active and inactive calls. Cut-off read from the data, not from the text of the source: active = GI50 up to about 1.1 µM and inactive = higher.

Assays:
Test in all cases: DTP human tumour cell line panel, 48 h
786-0 = system: 786-0
A498 = system: A498
A549 = system: A549
ACHN = system: ACHN
BT-549 = system: BT-549
CAKI-1 = system: CAKI-1
CCRF-CEM = system: CCRF-CEM
COLO 205 = system: COLO 205
DU-145 = system: DU-145
EKVX = system: EKVX
HCC 2998 = system: HCC 2998
HCT-116 = system: HCT-116
HCT-15 = system: HCT-15
HL-60 = system: HL-60
HOP-62 = system: HOP-62
HOP-92 = system: HOP-92
HT-29 = system: HT-29
Hs-578T = system: Hs-578T
IGROV-1 = system: IGROV-1
K562 = system: K562
KM12 = system: KM12
LOX IMVI = system: LOX IMVI
M14 = system: M14
MCF7 = system: MCF7
MDA-MB-231 = system: MDA-MB-231
MDA-MB-435 = system: MDA-MB-435
MDA-N = system: MDA-N
MOLT-4 = system: MOLT-4
Malme-3M = system: Malme-3M
NCI-H226 = system: NCI-H226
NCI-H23 = system: NCI-H23
NCI-H460 = system: NCI-H460
NCI-H522 = system: NCI-H522
NCI/ADR-RES = system: NCI/ADR-RES
OVCAR-3 = system: OVCAR-3
OVCAR-4 = system: OVCAR-4
OVCAR-5 = system: OVCAR-5
OVCAR-8 = system: OVCAR-8
PC-3 = system: PC-3
RXF 393 = system: RXF 393
SF-268 = system: SF-268
SF-295 = system: SF-295
SK-MEL-28 = system: SK-MEL-28
SK-MEL-2 = system: SK-MEL-2
SK-MEL-5 = system: SK-MEL-5
SK-OV-3 = system: SK-OV-3
SN12C = system: SN12C
SNB-19 = system: SNB-19
SNB-75 = system: SNB-75
SR = system: SR
SW-620 = system: SW-620
T47D = system: T47D
TK-10 = system: TK-10
U-251 = system: U-251
UACC-257 = system: UACC-257
UACC-62 = system: UACC-62
UO-31 = system: UO-31
SF-539 = system: SF-539
RPMI-8226 = system: RPMI-8226

Oc1ccc(-c2cn3cc(C(F)(F)F)ccc3n2)cc1
GI50 (786-0): 30.7 µM (inactive) | GI50 (A498): 70.1 µM (inactive) | GI50 (A549): 44.8 µM (inactive) | GI50 (ACHN): 12.1 µM (inactive) | GI50 (BT-549): 56.4 µM (inactive) | GI50 (CAKI-1): 60.1 µM (inactive) | GI50 (CCRF-CEM): 15.9 µM (inactive) | GI50 (COLO 205): 45.2 µM (inactive) | GI50 (DU-145): 30.6 µM (inactive) | GI50 (EKVX): 56.2 µM (inactive) | GI50 (HCC 2998): 22.1 µM (inactive) | GI50 (HCT-116): 49.1 µM (inactive) | GI50 (HCT-15): 35.6 µM | GI50 (HL-60): 9.18 µM (inactive) | GI50 (HOP-62): > 100 µM (inactive) | GI50 (HOP-92): > 100 µM (inactive) | GI50 (HT-29): 34.8 µM (inactive) | GI50 (Hs-578T): > 100 µM (inactive) | GI50 (IGROV-1): 63.2 µM (inactive) | GI50 (K562): 35.2 µM (inactive) | GI50 (KM12): 43.3 µM (inactive) | GI50 (LOX IMVI): 43.2 µM (inactive) | GI50 (M14): 51.3 µM (inactive) | GI50 (MCF7): 26.7 µM (inactive) | GI50 (MDA-MB-231): > 100 µM (inactive) | GI50 (MDA-MB-435): 41.2 µM (inactive) | GI50 (MDA-N): 43.7 µM (inactive) | GI50 (MOLT-4): 26.5 µM (inactive) | GI50 (Malme-3M): 71.8 µM (inactive) | GI50 (NCI-H226): 74.3 µM (inactive) | GI50 (NCI-H23): 38 µM (inactive) | GI50 (NCI-H460): 32.1 µM (inactive) | GI50 (NCI-H522): 17.3 µM (inactive) | GI50 (NCI/ADR-RES): 29.9 µM (inactive) | GI50 (OVCAR-3): 41.3 µM (inactive) | GI50 (OVCAR-4): 55.7 µM (inactive) | GI50 (OVCAR-5): 76.9 µM (inactive) | GI50 (OVCAR-8): 37.8 µM (inactive) | GI50 (PC-3): 46.9 µM (inactive) | GI50 (RXF 393): 31.6 µM (inactive) | GI50 (SF-268): 89.1 µM (inactive) | GI50 (SF-295): 45.7 µM (inactive) | GI50 (SK-MEL-28): > 100 µM (inactive) | GI50 (SK-MEL-2): 62.2 µM (inactive) | GI50 (SK-MEL-5): 32.1 µM (inactive) | GI50 (SK-OV-3): > 100 µM (inactive) | GI50 (SN12C): 72.3 µM (inactive) | GI50 (SNB-19): > 100 µM (inactive) | GI50 (SNB-75): 6.84 µM (inactive) | GI50 (SR): 26.2 µM (inactive) | GI50 (SW-620): 75.5 µM (inactive) | GI50 (T47D): 18.3 µM (inactive) | GI50 (TK-10): 41.5 µM (inactive) | GI50 (U-251): 41.1 µM (inactive) | GI50 (UACC-257): 29.6 µM (inactive) | GI50 (UACC-62): 31.7 µM (inactive) | GI50 (UO-31): 61.5 µM (inactive)

Cc1nc2c(ccc3[nH]c4ccccc4c32)s1
GI50 (786-0): 26.1 µM (inactive) | GI50 (A498): 17.8 µM (inactive) | GI50 (A549): 28.4 µM (inactive) | GI50 (ACHN): 35.1 µM (inactive) | GI50 (BT-549): 19.1 µM (inactive) | GI50 (CAKI-1): 47.5 µM (inactive) | GI50 (CCRF-CEM): 18.8 µM (inactive) | GI50 (COLO 205): 20.5 µM (inactive) | GI50 (DU-145): 33.8 µM (inactive) | GI50 (EKVX): 21.2 µM (inactive) | GI50 (HCC 2998): 15.3 µM (inactive) | GI50 (HCT-116): 17.4 µM (inactive) | GI50 (HCT-15): 18.8 µM | GI50 (HL-60): 0.111 µM (active) | GI50 (HOP-62): 17.4 µM (inactive) | GI50 (HOP-92): 16.3 µM (inactive) | GI50 (HT-29): 16.9 µM (inactive) | GI50 (Hs-578T): 16.3 µM (inactive) | GI50 (IGROV-1): 21.9 µM (inactive) | GI50 (K562): 22.3 µM (inactive) | GI50 (KM12): 25.5 µM (inactive) | GI50 (M14): 18.9 µM (inactive) | GI50 (MCF7): 26.7 µM (inactive) | GI50 (MDA-MB-231): 14.5 µM (inactive) | GI50 (MDA-MB-435): 26.4 µM (inactive) | GI50 (MDA-N): 31.1 µM (inactive) | GI50 (MOLT-4): 12.6 µM (inactive) | GI50 (Malme-3M): 31.4 µM (inactive) | GI50 (NCI-H226): 14.8 µM (inactive) | GI50 (NCI-H23): 30.2 µM (inactive) | GI50 (NCI-H460): 20.6 µM (inactive) | GI50 (NCI-H522): 15.9 µM (inactive) | GI50 (NCI/ADR-RES): 34.8 µM (inactive) | GI50 (OVCAR-3): 20.6 µM (inactive) | GI50 (OVCAR-4): 25.5 µM (inactive) | GI50 (OVCAR-5): 19.3 µM (inactive) | GI50 (OVCAR-8): 30.1 µM (inactive) | GI50 (PC-3): 17.7 µM (inactive) | GI50 (RXF 393): 29.8 µM (inactive) | GI50 (SF-268): 29.2 µM (inactive) | GI50 (SF-539): 26 µM (inactive) | GI50 (SK-MEL-28): 21.1 µM (inactive) | GI50 (SK-MEL-2): 19.9 µM (inactive) | GI50 (SK-MEL-5): 15.2 µM (inactive) | GI50 (SK-OV-3): 22.3 µM (inactive) | GI50 (SN12C): 24 µM (inactive) | GI50 (SNB-19): 37.8 µM (inactive) | GI50 (SNB-75): 32.9 µM (inactive) | GI50 (SR): 13.8 µM (inactive) | GI50 (SW-620): 19.7 µM (inactive) | GI50 (T47D): 20.2 µM (inactive) | GI50 (TK-10): 29.5 µM (inactive) | GI50 (U-251): 20.5 µM (inactive) | GI50 (UACC-257): 35.6 µM (inactive) | GI50 (UACC-62): 18.4 µM (inactive) | GI50 (UO-31): 26.2 µM (inactive)

COc1ccc2o/c(=N\c3ccc(F)cc3)c(C(N)=O)cc2c1
GI50 (786-0): 10.5 µM (inactive) | GI50 (A498): 20 µM (inactive) | GI50 (A549): 64.3 µM (inactive) | GI50 (ACHN): 30.5 µM (inactive) | GI50 (BT-549): > 100 µM (inactive) | GI50 (CAKI-1): 45.6 µM (inactive) | GI50 (CCRF-CEM): > 100 µM (inactive) | GI50 (COLO 205): > 100 µM (inactive) | GI50 (DU-145): > 100 µM (inactive) | GI50 (EKVX): > 100 µM (inactive) | GI50 (HCC 2998): > 100 µM (inactive) | GI50 (HCT-116): 22.8 µM (inactive) | GI50 (HCT-15): > 100 µM | GI50 (HL-60): > 100 µM (inactive) | GI50 (HOP-62): 29.1 µM (inactive) | GI50 (HOP-92): 27.4 µM (inactive) | GI50 (HT-29): > 100 µM (inactive) | GI50 (Hs-578T): 62.1 µM (inactive) | GI50 (IGROV-1): 79.3 µM (inactive) | GI50 (K562): > 100 µM (inactive) | GI50 (KM12): > 100 µM (inactive) | GI50 (LOX IMVI): > 100 µM (inactive) | GI50 (M14): > 100 µM (inactive) | GI50 (MCF7): 56.8 µM (inactive) | GI50 (MDA-MB-231): 16.3 µM (inactive) | GI50 (MDA-MB-435): > 100 µM (inactive) | GI50 (MDA-N): > 100 µM (inactive) | GI50 (MOLT-4): > 100 µM (inactive) | GI50 (Malme-3M): 47.1 µM (inactive) | GI50 (NCI-H226): 36.6 µM (inactive) | GI50 (NCI-H23): 29.3 µM (inactive) | GI50 (NCI-H460): > 100 µM (inactive) | GI50 (NCI-H522): 28.9 µM (inactive) | GI50 (NCI/ADR-RES): 30.2 µM (inactive) | GI50 (OVCAR-3): 49.9 µM (inactive) | GI50 (OVCAR-4): 27.9 µM (inactive) | GI50 (OVCAR-5): > 100 µM (inactive) | GI50 (OVCAR-8): 17.8 µM (inactive) | GI50 (PC-3): > 100 µM (inactive) | GI50 (RPMI-8226): > 100 µM (inactive) | GI50 (RXF 393): 12.4 µM (inactive) | GI50 (SF-268): 43 µM (inactive) | GI50 (SF-295): 33.7 µM (inactive) | GI50 (SK-MEL-28): > 100 µM (inactive) | GI50 (SK-MEL-2): 22.8 µM (inactive) | GI50 (SK-MEL-5): > 100 µM (inactive) | GI50 (SK-OV-3): 17 µM (inactive) | GI50 (SN12C): 42 µM (inactive) | GI50 (SNB-19): 38.5 µM (inactive) | GI50 (SNB-75): 12.6 µM (inactive) | GI50 (SR): > 100 µM (inactive) | GI50 (SW-620): > 100 µM (inactive) | GI50 (T47D): 19.4 µM (inactive) | GI50 (TK-10): 21.6 µM (inactive) | GI50 (U-251): 34.7 µM (inactive) | GI50 (UACC-257): > 100 µM (inactive) | GI50 (UACC-62): 35.3 µM (inactive) | GI50 (UO-31): 46.8 µM (inactive)
